Values after ≈ are worked out from the molar mass of the structure shown. Active and inactive are the calls of the source. The rule behind the calls is not given here.
Assays:
Format in all cases: functional
Pseudomonas aeruginosa [1] = test: Antibiofilm activity against Pseudomonas aeruginosa MTCC 2453 after 24 hrs by crystal violet staining technique
Staphylococcus aureus [2] = test: Antibiofilm activity against Staphylococcus aureus MLS-16 MTCC 2940 after 24 hrs by crystal violet staining technique
Staphylococcus aureus [3] = test: Antibiofilm activity against Staphylococcus aureus MTCC 96 after 24 hrs by crystal violet staining technique
Pseudomonas aeruginosa [4] = test: Antimicrobial activity against Pseudomonas aeruginosa MTCC 2453 assessed as growth inhibition after 24 hrs by well diffusion method; conditions: MTCC 2453, 24 h
Bacillus subtilis = test: Antimicrobial activity against Bacillus subtilis MTCC 121 assessed as growth inhibition after 24 hrs by well diffusion method; conditions: MTCC 121, 24 h
Staphylococcus aureus [5] = test: Antimicrobial activity against Staphylococcus aureus MLS-16 MTCC 2940 assessed as growth inhibition after 24 hrs by well diffusion method; conditions: MLS-16 MTCC 2940, 24 h
Staphylococcus aureus [6] = test: Antimicrobial activity against Staphylococcus aureus MTCC 96 assessed as growth inhibition after 24 hrs by well diffusion method; conditions: MTCC 96, 24 h
Micrococcus luteus = test: Antimicrobial activity against Micrococcus luteus MTCC 2470 assessed as growth inhibition after 24 hrs by well diffusion method; conditions: MTCC 2470, 24 h

| SMILES | MBEC (Pseudomonas aeruginosa [1]) | MBEC (Staphylococcus aureus [2]) | MBEC (Staphylococcus aureus [3]) | MIC (Pseudomonas aeruginosa [4]) [µg/mL] | MIC (Bacillus subtilis) [µg/mL] | MIC (Staphylococcus aureus [5]) [µg/mL] | MIC (Staphylococcus aureus [6]) [µg/mL] | MIC (Micrococcus luteus) [µg/mL] |
| --- | --- | --- | --- | --- | --- | --- | --- | --- |
| COc1cc(C(c2c(O)c3cc(F)ccc3oc2=O)c2c(N)n(C)c(=O)n(C)c2=O)ccc1O (stereo unspecified) | inactive | 40 µg/mL | inactive | > 150 | 9.37 (≈ 20 µM) | 37.5 (≈ 79.9 µM) | 75 (≈ 160 µM) | 9.37 (≈ 20 µM) |
| Cn1c(N)c(C(c2cn(-c3ccccc3)nc2-c2ccccc2)c2c(O)c3cc(F)ccc3oc2=O)c(=O)n(C)c1=O (stereo unspecified) | inactive | 4 µg/mL | 10 µg/mL | > 150 | 4.68 (≈ 8.27 µM) | 1.17 (≈ 2.07 µM) | 2.34 (≈ 4.14 µM) | 2.34 (≈ 4.14 µM) |
| Cn1c(N)c(C(c2ccc(C#N)cc2)c2c(O)c3ccc4ccccc4c3oc2=O)c(=O)n(C)c1=O (stereo unspecified) | – | – | – | > 150 | 37.5 (≈ 78 µM) | 37.5 (≈ 78 µM) | > 150 | 150 (≈ 312 µM) |
| Cc1ccc2oc(=O)c(C(c3ccc(F)cc3)c3c(N)n(C)c(=O)n(C)c3=O)c(O)c2c1 (stereo unspecified) | – | – | – | > 150 | 37.5 (≈ 85.7 µM) | 150 (≈ 343 µM) | > 150 | > 150 |
| Cc1ccc2oc(=O)c(C(c3ccc(C(F)(F)F)cc3)c3c(N)n(C)c(=O)n(C)c3=O)c(O)c2c1 (stereo unspecified) | 20 µg/mL | 20 µg/mL | inactive | 9.37 (≈ 19.2 µM) | 9.37 (≈ 19.2 µM) | 18.8 (≈ 38.5 µM) | > 150 | 18.8 (≈ 38.5 µM) |
| CCOc1cc(C(c2c(O)c3cc(C)ccc3oc2=O)c2c(N)n(C)c(=O)n(C)c2=O)ccc1O (stereo unspecified) | 20 µg/mL | 10 µg/mL | inactive | 9.37 (≈ 19.5 µM) | 9.37 (≈ 19.5 µM) | 9.37 (≈ 19.5 µM) | 75 (≈ 156 µM) | 9.37 (≈ 19.5 µM) |
| COc1ccc(-c2nn(-c3ccccc3)cc2C(c2c(O)c3cc(C)ccc3oc2=O)c2c(N)n(C)c(=O)n(C)c2=O)cc1 (stereo unspecified) | inactive | inactive | 10 µg/mL | > 150 | 2.34 (≈ 3.96 µM) | > 150 | 4.68 (≈ 7.91 µM) | 2.34 (≈ 3.96 µM) |
| COc1cc(C(c2c(O)c3cc(F)ccc3oc2=O)c2c(N)n(C)c(=O)n(C)c2=O)cc(OC)c1O (stereo unspecified) | – | – | – | > 150 | > 150 | 37.5 (≈ 75.1 µM) | > 150 | 18.8 (≈ 37.5 µM) |
| Cc1ccc2oc(=O)c(C(c3ccc(C#N)cc3)c3c(N)n(C)c(=O)n(C)c3=O)c(O)c2c1 (stereo unspecified) | – | – | – | > 150 | > 150 | 150 (≈ 337 µM) | > 150 | > 150 |
| Cc1cc(O)c(C(c2c(N)n(C)c(=O)n(C)c2=O)C2CCCCC2)c(=O)o1 (stereo unspecified) | – | – | – | > 150 | 150 (≈ 400 µM) | > 150 | > 150 | > 150 |
| CCCC(c1c(O)c2cc(C)ccc2oc1=O)c1c(N)n(C)c(=O)n(C)c1=O (stereo unspecified) | – | – | – | > 150 | 18.8 (≈ 48.6 µM) | 75 (≈ 195 µM) | 75 (≈ 195 µM) | 75 (≈ 195 µM) |
| Cn1c(N)c(C(c2cn(-c3ccccc3)nc2-c2ccc(Cl)cc2)c2c(O)c3cc(F)ccc3oc2=O)c(=O)n(C)c1=O (stereo unspecified) | inactive | inactive | 4 µg/mL | > 150 | 1.17 (≈ 1.95 µM) | > 150 | 1.17 (≈ 1.95 µM) | 0.58 (≈ 0.967 µM) |
| Cc1ccc2oc(=O)c(C(c3ccc(C(C)C)cc3)c3c(N)n(C)c(=O)n(C)c3=O)c(O)c2c1 (stereo unspecified) | – | – | – | > 150 | 9.37 (≈ 20.3 µM) | 150 (≈ 325 µM) | > 150 | 75 (≈ 163 µM) |
| Cc1ccc2oc(=O)c(C(c3cn(-c4ccccc4)nc3-c3ccccc3)c3c(N)n(C)c(=O)n(C)c3=O)c(O)c2c1 (stereo unspecified) | inactive | inactive | 10 µg/mL | > 150 | 2.34 (≈ 4.17 µM) | > 150 | 4.68 (≈ 8.33 µM) | 2.34 (≈ 4.17 µM) |
| Cc1cc(O)c(C(c2ccc(C(F)(F)F)cc2)c2c(N)n(C)c(=O)n(C)c2=O)c(=O)o1 (stereo unspecified) | – | – | – | > 150 | 150 (≈ 343 µM) | > 150 | > 150 | > 150 |
| Cn1c(N)c(C(c2ccc(C(F)(F)F)cc2)c2c(O)c3ccc4ccccc4c3oc2=O)c(=O)n(C)c1=O (stereo unspecified) | inactive | 10 µg/mL | 10 µg/mL | > 150 | 9.37 (≈ 17.9 µM) | 2.34 (≈ 4.47 µM) | 9.37 (≈ 17.9 µM) | 18.8 (≈ 35.8 µM) |
| O=C(O)c1cn(C2CC2)c2cc(N3CCNCC3)c(F)cc2c1=O [CIPROFLOXACIN] | 4 µg/mL | 4 µg/mL | 4 µg/mL | 0.58 (≈ 1.75 µM) | 0.58 (≈ 1.75 µM) | 0.58 (≈ 1.75 µM) | 0.58 (≈ 1.75 µM) | 0.58 (≈ 1.75 µM) |
| COc1ccc(C(c2c(O)c3ccc4ccccc4c3oc2=O)c2c(N)n(C)c(=O)n(C)c2=O)cc1OC (stereo unspecified) | – | – | – | > 150 | 18.8 (≈ 36.4 µM) | 9.37 (≈ 18.2 µM) | > 150 | > 150 |
| Cn1c(N)c(C(c2ccc(C#N)cc2)c2c(O)c3cc(F)ccc3oc2=O)c(=O)n(C)c1=O (stereo unspecified) | – | – | – | > 150 | 75 (≈ 167 µM) | 75 (≈ 167 µM) | 75 (≈ 167 µM) | > 150 |
| COc1ccc(-c2nn(-c3ccccc3)cc2C(c2c(O)c3cc(F)ccc3oc2=O)c2c(N)n(C)c(=O)n(C)c2=O)cc1 (stereo unspecified) | inactive | inactive | 10 µg/mL | > 150 | 2.34 (≈ 3.93 µM) | > 150 | 4.68 (≈ 7.86 µM) | 2.34 (≈ 3.93 µM) |
| Cn1c(N)c(C(c2cn(-c3ccccc3)nc2-c2ccc([N+](=O)[O-])cc2)c2c(O)c3cc(F)ccc3oc2=O)c(=O)n(C)c1=O (stereo unspecified) | inactive | inactive | 10 µg/mL | > 150 | 2.34 (≈ 3.83 µM) | > 150 | 4.68 (≈ 7.67 µM) | 2.34 (≈ 3.83 µM) |
| COc1ccc(C(c2c(O)c3cc(C)ccc3oc2=O)c2c(N)n(C)c(=O)n(C)c2=O)cc1 (stereo unspecified) | – | – | – | > 150 | 75 (≈ 167 µM) | 75 (≈ 167 µM) | > 150 | 75 (≈ 167 µM) |
| Cc1ccc(-c2nn(-c3ccccc3)cc2C(c2c(O)c3cc(F)ccc3oc2=O)c2c(N)n(C)c(=O)n(C)c2=O)cc1 (stereo unspecified) | inactive | inactive | 4 µg/mL | > 150 | 1.17 (≈ 2.02 µM) | > 150 | 2.34 (≈ 4.04 µM) | 0.58 (≈ 1 µM) |
